Reference: patent publication US20200371122A1, “BIOMARKER FOR SENESCENT CELLS” (Buck Institute for Research on Aging, priority 2017, published 2020)

What was measured:
Format in all cases: cell-based, human
MCF7 = assay: Cleaved caspase-3 immunofluorescence in breast cancer cells; details: p53-positive cell line, 10 μM, 3 days
Protocol: (§1) Human fetal lung fibroblasts (IMR-90) were cultured in Dulbecco's modified eagle medium (DMEM) supplemented with 10% FBS and penicillin/streptomycin. LL 29 (AnHa) cells were obtained from the ATCC and growth to confluence using the ATCC protocol, but were subcultured as described for IMR-90 before initiation of all experiments. Quiescence was induced by replacing culture media with media containing 0.2% FBS. MCF-7 and MDA-MB-231 breast cancer cells were cultured in RPMI supplemented with 10% FBS and penicillin/streptomycin. All cells were cultured at 3% O2, and used between 25 and 40 population doublings. All cells were mycoplasma free.
(§2) For EdU labeling, cells were cultured with EdU (10 μM) for 24 h, fixed in 4% buffered formalin for 10 min, washed in PBS, and permeabilized in 0.5% Triton X-100 for 30 min. Cells were treated as instructed by the manufacturer Life Technologies Cat #C10337). For immunofluorescence, cells were blocked in 10% normal goat serum for 30 min, washed, and incubated overnight in antibodies to Ki67 (Abcam) or cleaved caspase 3 (Cell Signaling). Cell were then washed, incubated in fluorescent secondary antibodies, and mounted using vectashield mounting medium with DAPI.

MDA-MB-231 = assay: as above; details: p53-mutant cell line, 10 μM, 3 days
Protocol: as §1, §2

IMR-90 fibroblasts = assay: Sensitisation to IR-induced senescence by senescence-equivalent dose of 15d-PGJ2; details: 1.4 μM
From the text: Senescence was induced by irradiation with 10 Gy of ionizing radiation. Non-senescent controls (proliferating or quiescent) were placed in the irradiator for an identical period of time without turning on the irradiator. Oncogene-induced senescence was induced via lentiviral overexpression of HRAS^V12, as described previously (Wiley et al. (2016) Cell Metab. 23: 303-314).
SA-Bgal activity was detected as described previously (Dimri et al. (1995) Proc. Natl. Acad. Sci. USA, 92: 9363-9367) using a commercial kit (Biovision).
as §2

Structure (SMILES): CCCCC/C=C/C=C1/C(=O)C=C[C@@H]1C/C=C\CCCC(=O)O [15d-PGJ2]
- apoptosis (cleaved caspase-3) (MCF7): did not
- apoptosis (cleaved caspase-3) (MDA-MB-231): induced apoptosis
- SA-beta-galactosidase, EdU incorporation and cell number versus DMSO (IMR-90 fibroblasts; 10 Gy IR, 10 days): no differences
- senescence versus control cells (IMR-90 fibroblasts; lower doses of IR, 10 days): more senescent relative to control cells
- induction of senescence (IMR-90 fibroblasts; no IR): did not induce senescence on its own
